Data published in US4312861A, “Pharmaceutical compositions containing N-alkyl-N-(nuclearly-substituted) benzylamines having vasotonia-regulating activity” (Hoechst Aktiengesellschaft, priority 1974, dated 1982).

What was measured:
[1] = Toxicity in the mouse (Litchfield and Wilcoxon); type: in vivo; conditions: mouse, in vivo
Experimental: (6) Toxicity in the mouse
Toxicity was determined according to Litchfield and Wilcoxon (J. Pharmacol. exp. Ther. 97 (1949), page 399) in the mouse. In comparison, the values with the known substance aescin sodium salt were determined. Comparative tests with 0.1% solution, of venous and optical compatibility on the rabbit yielded similar results.

[2] = system: permeability of the capillaries; assay: Histamine rash test (modified Halpern), capillary permeability; type: in vivo; conditions: 30 minutes before histamine
Experimental: The test according to Halpern (Presse medicale 65 (1949), page 949) was used in modified form. The suppressive effect of the compounds according to the invention on the permeability of the capillaries was tested. The blue coloration induced by intravenous administration of trypan blue at two intracutaneous histamine injection points per animal, (trypan blue administered 2 minutes before the histamine), was estimated according to the following scale of values:
indications of blue coloration
clear blue coloration =4
stong blue coloration =6
The preceding evaluation was made from the combined effect at the two injection points.
The test substances were administered i.p. 30 minutes before the histamine injection.

[3] = system: isolated guinea-pig heart; assay: Relative coronary blood-flow change in isolated guinea-pig heart (Langendorff)
Experimental: (4) Relative coronary blood-flow change in an isolated guinea-pig heart.
The tests were carried out according to the method of Langendorff (Pflugers Archiv. 61 (1895), page 219).
In Table 5, the change in coronary blood flow after administration of various quantities of the test substance is compared with that after administration of the known compounds heptaminol and Aescin sodium salt.

perfused rabbit ear = assay: Blood-flow change in perfused isolated rabbit ear, vaso-dilator activity (Ringer-Norfenefrin solution)
Experimental: (3) Blood-flow change in an isolated rabbit ear
The tests were carried out according to Krakow-Pissemski (Pflugers Archiv 151 (1913), page 583 and 156 (1914), page 426). In Table 5a the estimated values of the vaso-constrictor activity in Ringer solutions of varying concentrations are given and in Table 5b values for vasodilatory activity in Ringer-Norfenefrin solutions of varying concentrations are given. As a comparison, the values obtained with the known preparation aescin sodium are given.

[4] = system: carrageenin oedema in the rat paw; assay: Suppression of carrageenin oedema in the rat paw (Siegmund); type: in vivo; conditions: 3 h p.a.
Experimental: (7) Suppression of carrageenin oedema in the rat paw
The inflammation-reducing and anti-oedematous effects on carrageenin and serotonin oedemas in the rat paw were studied according to Siegmund et al (Proc. Soc. exp. Biol. Med. 95 (1957), page 729). The values are given as percentages, based on the values obtained in control tests using a dummy procedure. In this way, the antiphlogistic activity of the substances according to the invention was tested.

[5] = system: writhing movements in the mouse; assay: Writhing test (Winter); type: in vivo
Text: The analgesic activity of the compounds according to the invention were studied by the method of Winter et al (Proc. Soc. exp. Biol. Med, 111 (1962), page 544), in which the suppression of writhing movements in the mouse was observed.

isolated portal vein = assay: Isolated rat's portal vein (Berti), increase in tonus
Experimental: (2) Isolated rat's portal vein
The tests on the rat's portal vein, an organ with its own rhythm, were performed according to the method of Berti et al (Arch. int. Pharmacodyn. 184 (1970), page 328). In Table 4, the increase in tonus at various adrenalin concentrations is given in milligrams. As a comparison, the values for the known substance heptaminol (=6-amino-2-methylheptane-2-ol) are also given.

[6] = 10 μg (first figure where two are given)
[7] = 30 μg (first figure where two are given)
[8] = 100 μg (first figure where two are given)

CCCCCC(C)NCc1c(C)cc(C)cc1C (single isomer, unassigned) [compound 3]
LD50 ([1]; ip): 50 to 100 mg/kg | LD50 ([1]; iv): 10.8 mg/kg | Histamine rash test, blue coloration score (0 = none, 2 = indications, 4 = clear, 6 = strong) ([2]; 1.0 mg/kg i.p.): 2.5 | Histamine rash test, blue coloration score (0 = none, 2 = indications, 4 = clear, 6 = strong) ([2]; 3.0 mg/kg i.p.): 2.5 | Relative change in coronary blood flow [3, 6]: +14 | Relative change in coronary blood flow [3, 7]: +19 | Relative change in coronary blood flow [3, 8]: +30 | Relative change in blood flow, vaso-dilator activity (perfused rabbit ear; 3 × 10^-5 g/ml): +38 | Relative change in blood flow, vaso-dilator activity (perfused rabbit ear; 10^-5 g/ml): +105 | Relative change in blood flow, vaso-dilator activity (perfused rabbit ear; 10^-6 g/ml): +43 | Relative change in blood flow, vaso-dilator activity (perfused rabbit ear; 10^-7 g/ml): +3 | Suppression of carrageenin oedema in the paw (antiphlogistic activity) ([4]; 100 mg/kg p.o.): 11%

CCCCCC(C)NCc1ccc(Cl)cc1 (single isomer, unassigned) [compound 8]
LD50 ([1]; ip): 25 to 100 mg/kg | Relative change in blood flow, vaso-dilator activity (perfused rabbit ear; 3 × 10^-5 g/ml): +66 | Relative change in blood flow, vaso-dilator activity (perfused rabbit ear; 10^-6 g/ml): +3 | Suppression of writhing movements ([5]; 50 mg/kg p.o.): 15%

CC(N)CCCC(C)(C)O (stereo not shown) [Heptaminol, 6-amino-2-methylheptane-2-ol, reference compound]
Increase in tonus, isolated rat's portal vein (isolated portal vein; 10^-4 g/ml): +47 milligrams | Increase in tonus, isolated rat's portal vein (isolated portal vein; 10^-5 g/ml): +9 milligrams | Increase in tonus, isolated rat's portal vein (isolated portal vein; 10^-6 g/ml): +9 milligrams | Relative change in coronary blood flow [3, 6]: 0 | Relative change in coronary blood flow [3, 7]: 0 | Relative change in coronary blood flow [3, 8]: 0 | Effect on coronary vessels of the guinea-pig heart ([3]; in words): no effect on the guinea-pig heart | Effect on vessels of the tonicised rabbit ear (perfused rabbit ear; in words): intensifies the Ringer-Norfenefrin constriction in the rabbit ear | Control test with heptaminol, rabbit ear (footnote ++) (perfused rabbit ear; mark in 10^-4 g/ml line): constriction

CCCCCC(C)NCc1c(C)c(C)cc(C)c1C (stereo not shown) [compound 1]
LD50 ([1]; ip): 50 to 100 mg/kg | Relative change in coronary blood flow, second figure after slash ([3]; 10 μg): -14 | Relative change in coronary blood flow [3, 6]: +53 | Relative change in coronary blood flow, second figure after slash ([3]; 30 μg): -11 | Relative change in coronary blood flow [3, 7]: +130

CCCCCC(C)NCc1c(C)cc(C(C)(C)C)cc1C (stereo not shown) [compound 5]
Relative change in coronary blood flow [3, 6]: +118 | Relative change in coronary blood flow [3, 7]: +280

CCCCCC(C)NCc1cc(C(C)(C)C)ccc1C (stereo not shown) [compound 6]
Relative change in coronary blood flow [3, 6]: +129 | Relative change in coronary blood flow [3, 7]: +187

CCCCCC(C)NCc1ccc(F)cc1 (stereo not shown) [compound 7]
LD50 ([1]; ip): 100 to 250 mg/kg | Relative change in blood flow, vaso-dilator activity (perfused rabbit ear; 3 × 10^-5 g/ml): +34 | Suppression of writhing movements ([5]; 40 mg/kg p.o.): 46% | Suppression of writhing movements ([5]; 63 mg/kg p.o.): 67% | Suppression of writhing movements ([5]; 100 mg/kg p.o.): 77% | Suppression of carrageenin oedema in the paw (antiphlogistic activity) ([4]; 25 mg/kg p.o.): 53% | Suppression of carrageenin oedema in the paw (antiphlogistic activity) ([4]; 63 mg/kg p.o.): 71%

CCCCCC(C)NCc1ccccc1Cl (stereo not shown) [compound 9]
LD50 ([1]; ip): 100 to 250 mg/kg

CCCCCC(C)NCc1c(Cl)cccc1Cl (stereo not shown) [compound 10]
Relative change in coronary blood flow [3, 6]: +33

CCCCCC(C)NCc1cccc(Br)c1 (stereo not shown) [compound 11]
LD50 ([1]; ip): 100 to 250 mg/kg

CCCCCC(C)NCc1ccccc1Br (stereo not shown) [compound 12]
LD50 ([1]; ip): 100 to 250 mg/kg | Relative change in blood flow, vaso-dilator activity (perfused rabbit ear; 3 × 10^-5 g/ml): +12

CCCCCC(C)NCc1ccc([N+](=O)[O-])cc1 (stereo not shown) [compound 13]
LD50 ([1]; ip): 100 to 250 mg/kg | Suppression of carrageenin oedema in the paw (antiphlogistic activity) ([4]; 63 mg/kg p.o.): 17% | Suppression of carrageenin oedema in the paw (antiphlogistic activity) ([4]; 100 mg/kg p.o.): 59%

CCCCCNCc1c(C)cc(C)cc1C [compound 14]
LD50 ([1]; ip): 50 to 100 mg/kg

CCCCCCNCc1c(C)cc(C)cc1C [compound 15]
LD50 ([1]; ip): 50 to 100 mg/kg | Relative change in coronary blood flow, second figure after slash ([3]; 30 μg): -21 | Relative change in coronary blood flow [3, 7]: +68 | Relative change in coronary blood flow, second figure after slash ([3]; 100 μg): -17 | Relative change in coronary blood flow [3, 8]: +85
